# Experimental data taken from patent US20260250290A1 (BRISTOL-MYERS SQUIBB COMPANY, priority 2023, published 2026).
# Counter-ions that a name gives are not always drawn. Like-named read-outs stand apart in the source and are kept apart here.
# Target: T1, full length SGK1 (Homo sapiens, UniProt O00141)
# T1 construct: 125 μM full length SGK1 (Life Technologies Part #PR7358A); purchased Life Technologies PR7358A
# T1 sequence (O00141 1-431): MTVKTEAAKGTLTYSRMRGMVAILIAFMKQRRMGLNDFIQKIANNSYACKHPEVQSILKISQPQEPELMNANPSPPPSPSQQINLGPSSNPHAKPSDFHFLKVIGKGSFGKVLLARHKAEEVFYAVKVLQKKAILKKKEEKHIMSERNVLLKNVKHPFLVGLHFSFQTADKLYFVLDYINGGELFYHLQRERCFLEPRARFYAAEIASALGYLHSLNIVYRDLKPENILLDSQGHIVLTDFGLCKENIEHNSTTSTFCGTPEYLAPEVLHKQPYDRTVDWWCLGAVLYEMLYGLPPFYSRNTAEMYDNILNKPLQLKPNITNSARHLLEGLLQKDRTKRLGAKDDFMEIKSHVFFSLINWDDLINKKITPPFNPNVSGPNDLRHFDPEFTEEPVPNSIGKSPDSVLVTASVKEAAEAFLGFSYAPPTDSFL
# Experiment: SGK1 inhibition Assay A (Caliper LabChip electrophoretic separation of fluorescent peptide substrate and phosphorylated product)
# Type: biochemical
# Conditions: 20 μM ATP, 40 min incubation
"IC50 (Assay A, read-out: SGK1 IC50)",Compound,"IC50 (SGK1 IC50, Assay A)"
0.014 µM,"CC(=O)N1CC=C(c2cc(N3CCC[C@@H](NC(=O)c4sc(Cl)cc4OCCN4CCNCC4)C3)c3c(N)ncnn23)C1 [Example 298, (R)-N-(1-(7-(1-acetyl-2,5-dihydro-1H-pyrrol-3-yl)-4-aminopyrrolo[2,1-f][1,2,4]triazin-5-yl)piperidin-3-yl)-5-chloro-3-(2-(piperazin-1-yl)ethoxy)thiophene-2-carboxamide]",
0.003 µM,"COC(=O)N1CC=C(c2cc(N3CCC[C@@H](NC(=O)c4sc(Cl)cc4OC4CCNC4)C3)c3c(N)ncnn23)C1 (stereo partly drawn) [Example 569, Methyl 3-(4-amino-5-((3R)-3-(5-chloro-3-(pyrrolidin-3-yloxy)thiophene-2-carboxamido)piperidin-1-yl)pyrrolo[2,1-f][1,2,4]triazin-7-yl)-2,5-dihydro-1H-pyrrole-1-carboxylate]",
0.01 µM,"Cc1cc(-c2cc(N3CCC[C@@H](NC(=O)c4sc(Cl)cc4OCCN(C)C)C3)c3c(N)ncnn23)cc(C(F)F)n1 [Example 277, (R)-N-(1-(4-amino-7-(2-(difluoromethyl)-6-methylpyridin-4-yl)pyrrolo[2,1-f][1,2,4]triazin-5-yl)piperidin-3-yl)-5-chloro-3-(2-(dimethylamino)ethoxy) thiophene-2-carboxamide]",
0.013 µM,"N#Cc1ccc(-c2cc(N3CCC[C@@H](NC(=O)c4sc(Cl)cc4OCC(=O)N4CCCC4)C3)c3c(N)ncnn23)cn1 [Example 420, (R)-N-(1-(4-amino-7-(6-cyanopyridin-3-yl)pyrrolo[2,1-f][1,2,4]triazin-5-yl)piperidin-3-yl)-5-chloro-3-(2-oxo-2-(pyrrolidin-1-yl)ethoxy) thiophene-2-carboxamide]",
0.111 µM,"CS(=O)(=O)c1ccc(-c2cc(N3CCC[C@@H](NC(=O)c4ccsn4)C3)c3c(N)ncnn23)cc1 [Example 62, (R)-N-(1-(4-amino-7-(4-(methylsulfonyl)phenyl)pyrrolo[2,1-f][1,2,4]triazin-5-yl)piperidin-3-yl)isothiazole-3-carboxamide]",
0.006 µM,"N#Cc1ccc(-c2cc(N3CCC[C@@H](NC(=O)c4ccc(Cl)s4)C3)c3c(N)ncnn23)s1 [Example 212, (R)-N-(1-(4-amino-7-(5-cyanothiophen-2-yl)pyrrolo[2,1-f][1,2,4]triazin-5-yl)piperidin-3-yl)-5-chlorothiophene-2-carboxamide, TFA]",
0.021 µM,"Nc1ncnn2c(C3=CCN(C(=O)[C@H]4CCCN4)C3)cc(N3CCC[C@@H](NC(=O)c4ccc(Cl)s4)C3)c12 [Example 889, N-((R)-1-(7-(1-(D-proly1)-2,5-dihydro-1H-pyrrol-3-y1)-4-aminopyrrolo[2,1-f][1,2,4]triazin-5-yl)piperidin-3-y1)-5-chlorothiopbene-2-carboxamide, TFA]",
0.76 µM,"CC(=O)N1CC=C(c2cc(N3CCC[C@@H](NC(=O)C4CC5(C4)CC(F)(F)C5)C3)c3c(N)ncnn23)C1 [Example 705, (R)-N-(1-(7-(1-acetyl-2,5-dihydro-1H-pyrrol-3-yl)-4-aminopyrrolo[2,1-f][1,2,4]triazin-5-yl)piperidin-3-yl)-6,6-difluorospiro[3.3]heptane-2-carboxamide]",
0.047 µM,"CS(=O)(=O)c1ccc(-c2cc(N3CCC[C@@H](NC(=O)c4ccccc4F)C3)c3c(N)ncnn23)cc1 [Example 20, (R)-N-(1-(4-amino-7-(4-(methylsulfonyl)phenyl)pyrrolo[2,1-f][1,2,4]triazin-5-yl)piperidin-3-yl)-2-fluorobenzamide]",
0.001 µM,"Nc1ncnn2c(-c3ccnc(F)c3)cc(N3CCC[C@@H](NC(=O)c4cccs4)C3)c12 [Example 153, (R)-N-(1-(4-amino-7-(2-fluoropyridin-4-yl)pyrrolo[2,1-f][1,2,4]triazin-5-yl)piperidin-3-yl)thiophene-2-carboxamide]",
0.024 µM,"Nc1ncnn2c(-c3cncnc3)cc(N3CCC[C@@H](NC(=O)c4sc(Cl)cc4OC4CCN(C5CC5)CC4)C3)c12 [Example 617, (R)-N-(1-(4-amino-7-(pyrimidin-5-y1)pyrrolo[2,1-f][1,2,4]triazin-5-yl)piperidin-3-y1)-5-chloro-3-((1-cyclopropylpiperidin-4-yl)oxy)thiophene-2-carboxamide]",
0.015 µM,"CC(=O)c1ncc(-c2cc(N3CCC[C@@H](NC(=O)c4cccc(N5CCN(C)CC5)n4)C3)c3c(N)ncnn23)s1 [Example 791, (R)-N-(1-(7-(2-acetylthiazol-5-yl)-4-aminopyrrolo[2,1-f][1,2,4]triazin-5-yl)piperidin-3-yl)-6-(4-methylpiperazin-1-yl)picolinamide]",
0.157 µM,"CS(=O)(=O)c1ccc(-c2cc(N3CCCC(NC(=O)c4ccc(Cl)c(Cl)c4)C3)c3c(N)ncnn23)cc1 (centres unmarked) [Example 6, N-(1-(4-amino-7-(4-(methylsulfonyl)phenyl)pyrrolo[2,1-f][1,2,4]triazin-5-yl)piperidin-3-yl)-3,4-dichlorobenzamide]",
0.021 µM,COC(=O)N1CC=C(c2cc(N3CCC[C@@H](NC(=O)c4sc(Cl)cc4OCCN4CC(OC)C4)C3)c3c(N)ncnn23)C1 [Example 290],
0.006 µM,"CS(=O)(=O)c1ccc(-c2cc(N3CCC[C@@H](NC(=O)c4ccc(Br)s4)C3)c3c(N)ncnn23)cc1 [Example 95, (R)-N-(1-(4-amino-7-(4-(methylsulfonyl)phenyl)pyrrolo[2,1-f][1,2,4]triazin-5-yl)piperidin-3-yl)-5-bromothiophene-2-carboxamide, TFA]",
0.043 µM,"COc1cc(-c2cc(N3CCC[C@@H](NC(=O)c4ccc(Cl)s4)C3)c3c(N)ncnn23)ccc1C#N [Example 222, (R)-N-(1-(4-amino-7-(4-cyano-3-methoxyphenyl)pyrrolo [2,1-f][1,2,4]triazin-5-yl)piperidin-3-yl)-5-chlorothiophene-2-carboxamide, TFA]",
0.264 µM,"CC(=O)N1CC=C(c2cc(N3CCC[C@@H](NC(=O)N4CCCC4)C3)c3c(N)ncnn23)C1 [Example 876, (R)-N-(1-(7-(1-acctyl-2,5-dihydro-1H-pyrrol-3-yl)-4-aminopyrrolo[2,1-f][1,2,4]triazin-5-yl)piperidin-3-yl)pyrrolidine-1-carboxamide]",
0.008 µM,"CC(=O)N1CCC(Oc2cc(C(F)F)sc2C(=O)N[C@@H]2CCCN(c3cc(-c4cnc(C#N)c(C)c4)n4ncnc(N)c34)C2)CC1 [Example 415, (R)-3-((1-acetylpiperidin-4-yl)oxy)-N-(1-(4-amino-7-(6-cyano-5-methylpyridin-3-yl)pyrrolo[2,1-f][1,2,4]triazin-5-yl)piperidin-3-yl)-5-(difluoromethyl)thiophene-2-carboxamide]",
0.003 µM,"CS(=O)(=O)c1ccc(-c2cc(N3CCC[C@@H](NC(=O)c4ccc(Cl)s4)C3)c3c(N)ncnn23)cc1 [Example 94, (R)-N-(1-(4-amino-7-(4-(methylsulfonyl)phenyl)pyrrolo[2,1-f][1,2,4]triazin-5-yl)piperidin-3-yl)-5-chlorothiophene-2-carboxamide]",
0.161 µM,"CC(=O)N1CC=C(c2cc(N3CCC[C@@H](NC(=O)c4cccc(CN5CCN(C)CC5)n4)C3)c3c(N)ncnn23)C1 [Example 727, (R)-N-(1-(7-(1-acetyl-2,5-dihydro-1H-pyrrol-3-yl)-4-aminopyrrolo[2,1-f][1,2,4]triazin-5-yl)piperidin-3-yl)-6-((4-methylpiperazin-1-yl)methyl)picolinamide]",
0.003 µM,"NC(=O)c1ccc(-c2cc(N3CCC[C@@H](NC(=O)c4ccc(Cl)s4)C3)c3c(N)ncnn23)cc1F [Example 139, (R)—N-(1-(4-amino-7-(4-carbamoyl-3-fluorophenyl)pyrrolo[2,1-f][1,2,4]triazin-5-yl)piperidin-3-yl)-5-chlorothiophene-2-carboxamide, TFA]",
0.029 µM,"CC(=O)N1CC=C(c2cc(N3CCC[C@@H](NC(=O)c4cccc(N5CCOCC5)n4)C3)c3c(N)ncnn23)C1 [Example 703, (R)-N-(1-(7-(1-acetyl-2,5-dihydro-1H-pyrrol-3-yl)-4-aminopyrrolo[2,1-f][1,2,4]triazin-5-yl)piperidin-3-yl)-6-morpholinopicolinamide]",
0.07 µM,"COC(=O)CN1CC=C(c2cc(N3CCC[C@@H](NC(=O)c4ccc(Cl)s4)C3)c3c(N)ncnn23)C1 [Example 911, methyl (R)-2-(3-(4-amino-5-(3-(5-chlorothiophene-2-carboxamido)piperidin-1-yl)pyrrolo[2,1-f][1,2,4]triazin-7-yl)-2,5-dihydro-1H-pyrrol-1-yl)acetate]",
0.014 µM,"CS(=O)(=O)c1ccc(-c2cc(N3CCC[C@@H](NC(=O)c4sccc4F)C3)c3c(N)ncnn23)cc1 [Example 98, (R)-N-(1-(4-amino-7-(4-(methylsulfonyl)phenyl)pyrrolo[2,1-f][1,2,4]triazin-5-yl)piperidin-3-yl)-3-fluorothiophene-2-carboxamide]",
0.021 µM,Nc1ncnn2c(-c3ccco3)cc(N3CCC[C@@H](NC(=O)c4ccc(Cl)s4)C3)c12 [Example 230],
,"CC(=O)N1CC=C(c2cc(N3CCC[C@@H](NC(=O)c4ccc(S(=O)(=O)F)cc4)C3)c3c(N)ncnn23)C1 [Example 870, (R)-4-((1-(7-(1-acetyl-2,5-dihydro-1H-pyrrol-3-yl)-4-aminopyrrolo[2,1-f][1,2,4]triazin-5-yl)piperidin-3-yl)carbamoyl)benzenesulfonyl fluoride]",0.032 µM
